Measured values: patent publication US20260265176A1, “SUBSTITUTED CYCLOHEXENE AND CYCLOHEXANE INHIBITORS OF ORNITHINE AMINOTRANSFERASE” (Northwestern University, priority 2023, published 2026)

Legend:
Assay type in all cases: biochemical
hGABA-AT = target: T1, hGABA-AT (Homo sapiens, UniProt P80404); assay: Inactivation of hGABA-AT, coupled enzyme assay (kinetic constants); details: for kinact/K1, hGABA-AT: inactivation of hGABA-AT, K1 and kinact not determinable
T1 construct: made in house; host or cells: Expi293 cells
T1 sequence (P80404 29-500): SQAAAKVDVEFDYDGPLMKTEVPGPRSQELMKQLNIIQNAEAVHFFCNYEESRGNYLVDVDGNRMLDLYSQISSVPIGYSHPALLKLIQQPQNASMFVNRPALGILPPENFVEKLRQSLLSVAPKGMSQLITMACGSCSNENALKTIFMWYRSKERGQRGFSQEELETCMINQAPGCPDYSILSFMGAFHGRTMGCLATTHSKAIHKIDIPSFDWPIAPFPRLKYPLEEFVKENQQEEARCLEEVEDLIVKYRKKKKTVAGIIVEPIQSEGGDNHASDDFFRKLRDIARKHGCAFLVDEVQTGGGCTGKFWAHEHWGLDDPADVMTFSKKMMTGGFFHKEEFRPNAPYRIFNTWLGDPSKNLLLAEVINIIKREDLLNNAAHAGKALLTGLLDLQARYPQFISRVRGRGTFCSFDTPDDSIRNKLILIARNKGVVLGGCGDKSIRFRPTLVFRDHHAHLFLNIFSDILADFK
Experimental: (§1) Recombinant human brain γ-aminobutyric acid aminotransferase (hGABA-AT) was expressed and purified according to literature procedures with slight modifications.^26 Briefly, pelleted Expi293 cells were resuspended into buffer A containing 50 mM K4O7P2 pH 8.6, 300 mM NaCl, and 100 μM PLP. The suspension was lysed using four repeat cycles of sonication (10 s on, 10 s off, 20% amplitude) on ice followed by the addition of 12.5 mM MgCl, 125 μM CaCl, and 5 mg of lyophilized DNase I. The lysate incubated on ice for 60 minutes with periodic inversions followed by a two step centrifugation procedure to pellet cell debris. Step one included centrifugation at 18000 rpm for 60 minutes at 4° C. followed by the collection of supernatant and a secondary step at 20000 rpm for 45 minutes. The supernatant was collected, and the sample was loaded into a disposable 0.45 μm bottle-top vacuum filter system to remove remaining cell debris. The resulting sample was then loaded onto a Co^2+ immobilized metal affinity chromatography column pre-equilibrated with buffer A. The column was washed with 40 mL of buffer A before hGABA-AT was eluted using a step-wise elution gradient of buffer A supplemented with 200 mM imidazole. The step-wise gradient totaled 5 steps of increasing imidazole concentration (1 mM, 2 mM, 5 mM, 100 mM, 200 mM). Individual 4 mL fractions containing hGABA-AT were combined and concentrated to a volume of 3 mL using a 30000 Da molecular weight cutoff (MWCO) Amicon Ultra centrifugal filter device. For further purification, the sample was loaded onto a HiLoad Superdex-200PG column (16 mm×600 mm) pre-equilibrated with buffer A and subjected to size exclusion chromatography at a flow rate of 0.25 mL/min. PYCR1 was purified according to previously published protocols.^38 Coupled enzyme assays for hGABA-AT, hOAT, Ala-AT, and Asp-AT were carried out according to previous procedures.^26

hOAT [1] = target: T2, hOAT (Homo sapiens, UniProt P04181); assay: Inactivation of hOAT, coupled enzyme assay (kinetic constants); details: for kinact / kinact/K1, hOAT / Ki: inactivation of hOAT; for Ki: read-out: K1, hOAT
T2 construct: made in house; host or cells: Escherichia coli BL21 (DE3)
T2 sequence (P04181 26-439): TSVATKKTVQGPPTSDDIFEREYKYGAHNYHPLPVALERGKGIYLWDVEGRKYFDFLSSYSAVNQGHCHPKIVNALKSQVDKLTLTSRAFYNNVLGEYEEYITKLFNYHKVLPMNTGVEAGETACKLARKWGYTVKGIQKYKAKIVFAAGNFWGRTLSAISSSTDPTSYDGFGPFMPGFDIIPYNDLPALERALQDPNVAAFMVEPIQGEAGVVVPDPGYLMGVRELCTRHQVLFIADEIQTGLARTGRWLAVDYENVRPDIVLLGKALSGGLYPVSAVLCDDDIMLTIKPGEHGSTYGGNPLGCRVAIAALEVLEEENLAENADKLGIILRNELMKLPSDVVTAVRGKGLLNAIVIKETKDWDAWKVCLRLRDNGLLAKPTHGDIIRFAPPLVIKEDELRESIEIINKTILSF
Experimental: as §1

hOAT [2] = target: T2, hOAT; assay: Time-dependent reactivation experiment (dialysis) of hOAT inactivated by 17
Experimental: Mass spectrometry, however, might differentiate those possibilities. To confirm irreversible inactivation of hOAT by 17, a time-dependent reactivation experiment (dialysis) was performed. […] Aliquots at different time intervals were collected and assayed to detect restored enzyme activity. […] It takes approximately 10 equiv of 17, however, to produce complete enzyme inactivation.
The dialysis experiment was conducted using previous protocols.^26,38

hOAT [3] = target: T2, hOAT; assay: Partition ratio / turnover number by titration of hOAT with inactivator; details: for partition ratio: turnover number minus one
Source text: Determination of the Turnover Mechanism to Metabolites The partition ratio of an MBI is the ratio of compound that acts as a substrate relative to the compound that inactivates the enzyme. Ideally, plotting the enzyme activity remaining after inactivation versus equivalents of compound added will provide a straight line from 100 to 0% enzyme activity remaining. The x-intercept of this line would give the number of inactivator molecules required to inactivate a single enzyme active site (the turnover number). This number represents the total number of compound molecules that were engaged by the active site until the enzyme was inactivated. Of these compounds, only the final one will inactivate the enzyme, and the others will have been consumed as substrates. As a result, the partition ratio is the turnover number minus one (assuming a 1:1 stoichiometry of inactivator to enzyme in the inactivated complex).
The partition ratio of 17 was determined by titrating a known amount of hOAT with varying equivalents of inactivator (FIG. 7). The linear relationship of the remaining enzymatic activity was extrapolated to yield the exact number of equivalents of 17 to inactivate the enzyme completely. From this we determined the turnover number to be 4.27 and thus the partition ratio of 17 to be 3.27.
The turnover number for 17 was determined to be 2.2 by titrating a fixed amount of hOAT with varying equivalents of 17, measuring the remaining enzyme activities for the different equivalents of inhibitor, and employing the method of Pham et al.^32 (FIG. 24). The partition ratio, therefore, is 1.2.
The partition ratio was calculated using previous protocols.^26,28

hOAT [4] = target: T2, hOAT; assay: Transient-state stopped-flow spectrophotometry of hOAT reacting with inactivator; details: hyperbolic fit of kobs vs inactivator concentration, hOAT 17 μM, 20° C.
Experimental: Vertical arrows indicate the sequence of the observed spectra after initiating the experiment. […] A sample of hOAT (17 μM) was mixed with 17 (0-11 mM) using a stopped-flow spectrophotometer, and the reaction was observed between 300 and 800 nm for 150 sec using CCD detection. Several representative spectra from the data set are shown here.
FIG. 16C depicts the dependence of observed rate constants on the concentration of [5]. Fitting to a rectangular hyperbolic function (kobs=klimit[5]/K[5]+[5] returned an observed limiting rate constant of 0.20±0.01 s^−1 and a dissociation constant for reversible formation of the external aldimine of 2.9±0.4 mM.
The data collected using stopped-flow spectrophotometry serves as additional evidence for the proposed mechanism. […]
The subsequent increase in absorbance at 325 nm would thus report the accumulation of both the turnover and inhibition products, with no difference in rates.
Transient-State Kinetic Characterization of hOAT with […]: A sample of hOAT (17 μM) was mixed with 17 (0-11 mM) at 20° C. using a rapid mixing stopped-flow spectrophotometer (TgK Scientific) equipped with charge-coupled device (CCD) detection, allowing for the collection time-resolved spectra. […] A reconstructed time zero point was included in the data and was obtained by adding the spectrum of the enzyme and the spectrum of the inhibitor when measured separately. […]

[5] = listed as (±) 22, hydrochloride
[6] = from turnover number/partition ratio study, FIG. 24

Cl.N[C@@H]1C[C@H](C(=O)O)CC(F)(F)C1 (racemic) [(±)22, cis-5-Amino-3,3-difluorocyclohexane-1-carboxylic acid hydrochloride]
inhibition of hGABA-AT (in words) (hGABA-AT; hydrochloride): Weak reversible inhibition at 10 mM
inhibition of hGABA-AT (in words) (hGABA-AT; [5]): little or no inhibitory effect
inhibition of hOAT (in words) (hOAT [1]; hydrochloride): No inhibition up to 10 mM
inhibition of hOAT (in words) (hOAT [1]; [5]): little or no inhibitory effect

Cl.N[C@H]1C=C(C(=O)O)CC(F)(F)C1 [Compound 17, (R)-3-amino-5,5-difluorocyclohex-1-ene-1-carboxylic acid hydrochloride]
enzymatic activity recovered after dialysis (hOAT [2]; 72 hours of dialysis, hOAT treated with 0.6-10 equivalents of 17): No enzymatic activity was recovered
equivalents needed to produce complete enzyme inactivation (hOAT [2]; hOAT): approximately 10 equiv
share of compound undergoing turnover to a product and PMP (hOAT [3]; [6]): 55%
share of turnover resulting in inactivation (hOAT [3]; [6]): 45%
turnover number (hOAT [3]; linear extrapolation of remaining activity, FIG. 7): 4.27
turnover number (hOAT [3]; method of Pham et al., FIG. 24): 2.2
partition ratio (hOAT [3]; FIG. 7): 3.27
partition ratio (hOAT [3]; FIG. 24): 1.2
kinact/K1, hGABA-AT (hGABA-AT): 0.17 mM⁻¹ min⁻¹
kinact (hOAT [1]): 0.00467 s⁻¹
kinact/K1, hOAT (hOAT [1]): 1.04 mM⁻¹ min⁻¹
Ki (hOAT [1]): 270 ± 70 µM
kinact/KI (hOAT [1]; read-out: overall efficiency (kinact/KI) against hOAT (converted)): 17.3 M⁻¹ s⁻¹
observed limiting rate constant (hOAT [4]): 0.20 ± 0.01 s⁻¹
Kd (hOAT [4]; read-out: dissociation constant for reversible formation of the external aldimine): 2.9 ± 0.4 mM

Cl.N[C@H]1CC(C(=O)O)=CC(F)(F)C1 [Compound 17a, (S)-5-amino-3,3-difluorocyclohex-1-ene-1-carboxylic acid hydrochloride]
kinact/K1, hGABA-AT (hGABA-AT): 0.12 mM⁻¹ min⁻¹
kinact (hOAT [1]): 0.0025 s⁻¹
kinact/K1, hOAT (hOAT [1]): 0.11 mM⁻¹ min⁻¹
Ki (hOAT [1]): 1200 ± 400 µM
kinact/KI, fold less effective than that of 17 for hOAT (hOAT [1]; relative to 17): 10 fold
